# Results from patent publication US20040200144A1, “Plant growth regulator and a method of producing the regulator” (Dainichiseika Color & Chemicals Mfg. Co., Ltd., priority 2003, published 2004).
# Columns and labels:
# Format in all cases: in vivo
# cabbage young plants = experiment: Dwarfing test of cabbage young plant; conditions: for Plant Height / Dwarfing Rate: 5 ml per cell on 4th day, measured 22nd day; for Dwarfing Rate: vs comparative group
# Protocol: Dwarfing rate (%)=[(the plant height of the comparative group)−(the plant height of an addition group)/the plant height of the comparative group]×100
# 18.4 g of potassium hydroxide was dissolved in 400 ml of distilled water at 20° C., 50 g of cinnamic acid was added to the potassium hydroxide solution and dissolved by stirring, the resultant solution was diluted with distilled water until the total volume of solution was 500 ml, and thus 10% cinnamic acid aqueous solution (pH 8.8) was prepared. The aqueous solution was further diluted with distilled water 100 times or 33.3 times, and 0.1% cinnamic acid aqueous solution and 0.3% cinnamic acid aqueous solution were prepared, respectively.
# Nursery soil for house use was filled into the same polyethylene joint pot as described above, water was sufficiently given to the soil, and seeds of cabbage were sowed. After seeding, the pot was placed in the same greenhouse as described above to sprout. Subsequently, on the 4th day, the cinnamic acid aqueous solutions were added to the nursery soil in the joint pot. Among 36 cells, 12 cells were prepared as a 0.1% cinnamic acid aqueous solution addition group, and 5 ml of the 0.1% cinnamic acid aqueous solution in Example 3 was added to the nursery soil of each cell. Another 12 cells were prepared as 0.3% cinnamic acid aqueous solution addition group, and 5 ml of the 0.3% cinnamic acid aqueous solution in Example 3 was added to the nursery soil of each cell. Remaining 12 cells were prepared as a comparative group in which 5 ml of water is added to each cell, instead of the cinnamic acid aqueous solution. Subsequently, the cultivation of cabbage young plants in each group was continued under general conditions. On the 22nd day, the heights of young plants in each group were measured, the dwarfing rate (%) was calculated, and the dwarfing effect of cinnamic acid aqueous solution on cabbage young plants was examined.
# [1] = tested on: Cucumis melo var. makuwa young plants; experiment: Dwarfing test of Cucumis melo var. makuwa young plant; conditions: for Plant Height / Dwarfing Rate: 5 ml per cell on 7th day, measured 27th day; for Dwarfing Rate: vs comparative group
# Protocol: (§1) 50 g of sodium tripolyphosphate was dissolved in 400 ml of distilled water at 80° C., 17.5 g of cinnamic acid was added to the sodium tripolyphosphate solution and dissolved by stirring, the resultant solution was diluted with distilled water until the total volume of solution was 500 ml, and thus 3.5% cinnamic acid aqueous solution (pH 6.5) was prepared. The aqueous solution was further diluted with distilled water 70 times or 17.5 times, and 0.05% cinnamic acid aqueous solution and 0.2% cinnamic acid aqueous solution were prepared, respectively.
# (§2) Nursery soil for house use was filled into paper joint pots (each with 24 cells: 34×43×50 mm/cell), water was sufficiently given to the soil, and seeds of carrots were sowed. After seeding, the pot was placed in the same greenhouse as described above to sprout. Subsequently, on the 5th day, the cinnamic aqueous acid solutions were added to the nursery soil in the joint pots. One of the joint pots (24 cells) was prepared as a 0.05% cinnamic acid aqueous solution addition group, and 5 ml of the 0.05% cinnamic acid aqueous solution was added to the nursery soil of each cell. Another one of the join pots was prepared as a 0.2% cinnamic acid aqueous solution addition group, and 5 ml of the 0.2% cinnamic acid aqueous solution was added to the nursery soil of each cell. The other one of the joint pots was prepared as a comparative group in which 5 ml of water is added to each cell, instead of the cinnamic acid aqueous solution. Subsequently, the cultivation of carrot young plants in each group was continued under general conditions. On the 27th day, the heights of young plants in each group were measured, the dwarfing rate (%) was calculated, and the dwarfing effect of cinnamic acid aqueous solution on carrot young plants was examined. […].
# In the same way as in Example 12 except that seeds of tomato were sowed, and that the cinnamic acid solutions were added to the nursery soil of the joint pot on the 7th day, the dwarfing effect of cinnamic acid aqueous solution on tomato young plants was examined. […].
# In the same way as in Example 17 except that seeds of watermelon were sowed, and that plant heights were measured on the 27th day, the dwarfing effect of cinnamic acid aqueous solution on watermelon young plants was examined. […].
# In the same way as in Example 21 except that seeds of Cucumis melo var. makuwa were sowed, the dwarfing effect of cinnamic acid aqueous solution on Cucumis melo var. makuwa young plants was examined. […]
# cucumber young plants = experiment: Dwarfing test of cucumber young plant; conditions: for Plant Height / Dwarfing Rate: 5 ml per cell on 7th day, measured 20th day; for Dwarfing Rate: vs comparative group
# Protocol: After seeding, the pot was placed in the same greenhouse as described above to sprout. Subsequently, on the 5th day, the cinnamic aqueous acid solutions were added to the nursery soil in the joint pots. One of the joint pots (24 cells) was prepared as a 0.05% cinnamic acid aqueous solution addition group, and 5 ml of the 0.05% cinnamic acid aqueous solution was added to the nursery soil of each cell. Another one of the join pots was prepared as a 0.2% cinnamic acid aqueous solution addition group, and 5 ml of the 0.2% cinnamic acid aqueous solution was added to the nursery soil of each cell. […] Subsequently, the cultivation of carrot young plants in each group was continued under general conditions. On the 27th day, the heights of young plants in each group were measured, the dwarfing rate (%) was calculated, and the dwarfing effect of cinnamic acid aqueous solution on carrot young plants was examined. From the results in Table 5, it became evident that the 0.05% and 0.2% cinnamic acid aqueous solutions are effective in dwarfing carrot young plants. In the same way as in Example 5 except that seeds of cauliflower were sowed, the cinnamic acid solutions were added to the nursery soil in the joint pot on the 4th day, and that heights of young plants in each group were measured on the 20th day, the dwarfing effect of cinnamic acid aqueous solution on cauliflower young plants was examined. From the results in Table 12, it became evident that the cinnamic acid aqueous solutions are effective in dwarfing cauliflower young plants. In the same way as in Example 12 except that seeds of tomato were sowed, and that the cinnamic acid solutions were added to the nursery soil of the joint pot on the 7th day, the dwarfing effect of cinnamic acid aqueous solution on tomato young plants was examined. From the results in Table 17, it became evident that the cinnamic acid aqueous solutions are effective in dwarfing tomato young plants. In the same way as in Example 17 except that seeds of cucumber were sowed, the dwarfing effect of cinnamic acid aqueous solution on cucumber young plants was examined. From the results in Table 18, it became evident that the cinnamic acid aqueous solutions are effective in dwarfing cucumber young plants.
# turnip young plants = experiment: Dwarfing test of turnip young plant; conditions: for Plant Height / Dwarfing Rate: 5 ml per cell on 4th day, measured 20th day; for Dwarfing Rate: vs comparative group
# Protocol: as §1, §2
# In the same way as in Example 12 except that seeds of color turnip were sowed, the dwarfing effect of cinnamic acid aqueous solution on turnip young plants was examined. […]
compound,measurement,setting,value
O=C(O)C=Cc1ccccc1 [cinnamic acid],Plant Height,cabbage young plants; 0.1% aqueous solution,7.9 cm
same,Dwarfing Rate,cabbage young plants; 0.1% aqueous solution,14.1%
same,Plant Height,cabbage young plants; 0.3% aqueous solution,6.1 cm
same,Dwarfing Rate,cabbage young plants; 0.3% aqueous solution,33.7%
same,dwarfing effect,"cabbage young plants; cabbage young plants, 0.1% and 0.3% aqueous solutions",effective
same,Plant Height,[1]; 0.05% aqueous solution,6.1 cm
same,Dwarfing Rate,[1]; 0.05% aqueous solution,6.2%
same,Plant Height,[1]; 0.2% aqueous solution,4.7 cm
same,Dwarfing Rate,[1]; 0.2% aqueous solution,27.7%
same,dwarfing effect,"[1]; Cucumis melo var. makuwa young plants, 0.05% and 0.2% aqueous solutions",effective
same,Plant Height,cucumber young plants; 0.05% aqueous solution,7.8 cm
same,Dwarfing Rate,cucumber young plants; 0.05% aqueous solution,21.2%
same,Plant Height,cucumber young plants; 0.2% aqueous solution,6.2 cm
same,Dwarfing Rate,cucumber young plants; 0.2% aqueous solution,37.4%
same,dwarfing effect,"cucumber young plants; cucumber young plants, 0.05% and 0.2% aqueous solutions",effective
same,Plant Height,turnip young plants; 0.05% aqueous solution,7.0 cm
same,Dwarfing Rate,turnip young plants; 0.05% aqueous solution,23.1%
same,Plant Height,turnip young plants; 0.2% aqueous solution,6.0 cm
same,Dwarfing Rate,turnip young plants; 0.2% aqueous solution,34.1%
same,dwarfing effect,"turnip young plants; turnip young plants, 0.05% and 0.2% aqueous solutions",effective
